Activity calls are given as the source filed them.
Columns and labels:
Cytochrome P450 1A2 = target: T1, Cytochrome P450 1A2 (Homo sapiens, UniProt P05177);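 note: PubChem cytochrome P450 panel assay, CYP1A2 panel member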
T1 sequence (P05177 whole entry): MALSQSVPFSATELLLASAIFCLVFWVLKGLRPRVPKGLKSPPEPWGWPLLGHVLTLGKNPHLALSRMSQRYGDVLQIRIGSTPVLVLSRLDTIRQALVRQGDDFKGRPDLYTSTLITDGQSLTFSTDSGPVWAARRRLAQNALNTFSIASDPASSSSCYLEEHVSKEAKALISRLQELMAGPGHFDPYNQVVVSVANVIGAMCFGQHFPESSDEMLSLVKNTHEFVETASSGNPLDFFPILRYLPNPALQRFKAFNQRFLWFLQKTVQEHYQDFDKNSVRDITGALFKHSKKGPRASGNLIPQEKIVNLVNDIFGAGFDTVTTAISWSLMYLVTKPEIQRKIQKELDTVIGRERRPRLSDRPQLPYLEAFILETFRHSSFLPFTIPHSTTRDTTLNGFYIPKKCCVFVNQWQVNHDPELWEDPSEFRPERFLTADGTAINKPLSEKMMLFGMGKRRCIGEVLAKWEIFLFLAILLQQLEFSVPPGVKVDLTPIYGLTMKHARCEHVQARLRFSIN

INS1 = test: beta cell apoptosis inhibitors, cytokine rescue, dose response, luminescence, retest (AID 449756); assay type: functional, cell-based; conditions: Rattus norvegicus;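 note: cell death triggered by IL-1 beta plus TNF-alpha plus IFN-gamma mixture; protective hits raise ATP signal compared with cytokine alone wells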
[1] = target: Luciferin 4-monooxygenase (Photinus pyralis, UniProt P08659); test: firefly luciferase enzyme inhibitors, dose response, biochemical, luminescence (AID 1891)
[2] = Luminescence Cell-Based Dose Confirmation HTS to Identify Inhibitors of Platelet Dense Granule Release. [Related pubchem assays: 1663 (Primary HTS), 1678 (Summary of Project)]; assay type: functional
[3] = tested on: Streptococcus sp. 'group A'; test: growth inhibition of control SK(-) GAS strain, dose response, counter-screen for streptokinase expression inhibitor project, luminescence, kanamycin, BacTiterGlo, confirmation (AID 1900); assay type: functional, organism-based
Streptokinase A = target: T2, Streptokinase A (Streptococcus pyogenes serotype M1, UniProt P10520); test: S. pyogenes streptokinase expression inhibitors, potency, dose response, plasminogen activation absorbance, OD405 (AID 1914); assay type: functional, Streptococcus pyogenes M1 GAS;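 note: secreted streptokinase activity via plasminogen activation per viability signal from cell pellet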
T2 sequence (P10520 whole entry): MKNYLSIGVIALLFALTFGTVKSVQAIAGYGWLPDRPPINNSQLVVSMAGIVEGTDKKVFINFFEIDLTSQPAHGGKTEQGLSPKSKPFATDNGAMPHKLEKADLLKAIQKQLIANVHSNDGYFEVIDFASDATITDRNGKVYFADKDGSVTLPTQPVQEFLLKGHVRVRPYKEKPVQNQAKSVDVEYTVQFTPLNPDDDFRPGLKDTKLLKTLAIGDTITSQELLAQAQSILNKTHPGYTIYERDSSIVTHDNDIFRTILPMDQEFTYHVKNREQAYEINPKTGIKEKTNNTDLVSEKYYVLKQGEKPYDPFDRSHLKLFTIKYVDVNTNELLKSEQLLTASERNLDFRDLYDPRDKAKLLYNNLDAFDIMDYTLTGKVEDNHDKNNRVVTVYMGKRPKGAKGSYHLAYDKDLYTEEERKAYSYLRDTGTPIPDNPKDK

Streptococcus = test: Group A Streptococcus viability loss, dose response, counter-screen for streptokinase expression inhibitor project, luminescence, BacTiterGlo (AID 1915); assay type: functional, organism-based;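 note: potency for reduction of bacterial viability or growth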
[4] = Luminescence Cell-Based Dose Retest to Confirm Inhibitors of Cancer Stem Cells. [Related pubchem assays (depositor defined):AID2717, AID2721]; assay type: functional; conditions: Homo sapiens
[5] = inhibitors of intracellular T. cruzi replication, confirmation, NIH3T3 host cells, beta-gal luminescence (AID 2044); assay type: functional, cell-based;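 note: intracellular parasites grown in NIH/3T3 mouse fibroblasts as host cells; luminescent beta-galactosidase reporter signal from transgenic T. cruzi replicating inside host cells; inhibitors lower the luminescence signal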
[6] = cytotoxicity toward NIH3T3 fibroblasts, dose response, counter-screen, cell-based, ATP luminescence, mouse fibroblasts (AID 2010); assay type: functional;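 note: cells exposed to compound for about 90 hours before reading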
[7] = target: T3, Rac GTPase-activating protein 1 (Homo sapiens, UniProt Q9H0H5); test: MgcRacGAP GTPase-activating activity inhibitors, confirmation, biochemical, ADP Hunter fluorescence, primary and confirmatory (AID 624330); assay type: functional
T3 sequence (Q9H0H5 whole entry): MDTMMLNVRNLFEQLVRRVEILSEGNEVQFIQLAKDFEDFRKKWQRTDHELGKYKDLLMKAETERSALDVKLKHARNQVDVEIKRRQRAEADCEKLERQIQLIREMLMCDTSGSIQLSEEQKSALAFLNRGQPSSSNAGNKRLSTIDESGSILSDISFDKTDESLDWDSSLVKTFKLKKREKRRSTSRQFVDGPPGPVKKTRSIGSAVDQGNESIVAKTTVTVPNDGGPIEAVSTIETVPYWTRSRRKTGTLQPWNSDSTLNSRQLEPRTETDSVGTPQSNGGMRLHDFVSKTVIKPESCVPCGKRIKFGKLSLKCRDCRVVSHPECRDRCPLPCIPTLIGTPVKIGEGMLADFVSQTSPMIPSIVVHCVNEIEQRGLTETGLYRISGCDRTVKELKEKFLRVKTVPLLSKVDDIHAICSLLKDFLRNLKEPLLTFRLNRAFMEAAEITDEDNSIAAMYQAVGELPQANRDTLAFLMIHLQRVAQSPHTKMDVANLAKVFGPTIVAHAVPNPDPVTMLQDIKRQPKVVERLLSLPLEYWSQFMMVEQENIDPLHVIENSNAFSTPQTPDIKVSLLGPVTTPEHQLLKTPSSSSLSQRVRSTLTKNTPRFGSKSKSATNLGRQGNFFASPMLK

Cytochrome P450 2C19 = Cytochrome P450 2C19 (Homo sapiens, UniProt P33261); test: Cytochrome panel assay with activity outcomes. Panel member name: p450-cyp2c19 Compounds with AC50 equal or less than 10 uM are considered active; assay type: functional; conditions: read-out: AC50
Cytochrome P450 3A4 = Cytochrome P450 3A4 (Homo sapiens, UniProt P08684);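 note: CYP3A4 tested as one member of a cytochrome P450 panel screen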
Cytochrome P450 2C9 = Cytochrome P450 2C9 (Homo sapiens, UniProt P11712)
[8] = HEp-2 cell cytotoxicity, dose response, cytotoxicity control for RSV inhibitor project, HTS (AID 2410); assay type: functional; conditions: human respiratory syncytial virus

Chain of Cytochrome P450 2C19 (P33261 whole entry): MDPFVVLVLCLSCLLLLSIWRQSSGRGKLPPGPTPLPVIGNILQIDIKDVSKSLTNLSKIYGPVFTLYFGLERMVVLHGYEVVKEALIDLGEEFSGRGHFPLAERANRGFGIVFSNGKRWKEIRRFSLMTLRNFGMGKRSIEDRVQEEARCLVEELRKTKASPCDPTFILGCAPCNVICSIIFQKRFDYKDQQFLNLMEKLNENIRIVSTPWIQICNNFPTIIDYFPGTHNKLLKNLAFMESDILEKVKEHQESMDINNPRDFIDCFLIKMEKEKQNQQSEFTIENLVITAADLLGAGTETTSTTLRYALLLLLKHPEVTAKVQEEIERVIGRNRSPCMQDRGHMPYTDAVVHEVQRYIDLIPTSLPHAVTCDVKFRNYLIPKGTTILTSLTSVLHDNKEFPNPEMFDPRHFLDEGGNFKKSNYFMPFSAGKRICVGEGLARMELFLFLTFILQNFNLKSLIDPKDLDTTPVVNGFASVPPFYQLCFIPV
Chain of Luciferin 4-monooxygenase (P08659 whole entry): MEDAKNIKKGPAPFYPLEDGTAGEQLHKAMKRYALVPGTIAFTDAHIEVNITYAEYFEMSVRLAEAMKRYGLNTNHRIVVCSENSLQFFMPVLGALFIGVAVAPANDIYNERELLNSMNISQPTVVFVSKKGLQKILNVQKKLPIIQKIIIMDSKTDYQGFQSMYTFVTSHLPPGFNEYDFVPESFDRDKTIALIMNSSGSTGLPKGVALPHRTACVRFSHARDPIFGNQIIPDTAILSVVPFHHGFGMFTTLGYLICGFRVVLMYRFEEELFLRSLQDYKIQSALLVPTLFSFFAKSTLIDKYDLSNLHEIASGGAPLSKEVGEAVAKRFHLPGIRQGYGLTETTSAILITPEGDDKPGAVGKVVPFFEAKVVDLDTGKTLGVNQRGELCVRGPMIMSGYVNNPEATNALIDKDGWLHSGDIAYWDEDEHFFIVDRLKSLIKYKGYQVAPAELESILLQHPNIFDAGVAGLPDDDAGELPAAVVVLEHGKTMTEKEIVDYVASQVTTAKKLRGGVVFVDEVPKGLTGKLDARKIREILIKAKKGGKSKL
Chain of Cytochrome P450 3A4 (P08684 whole entry): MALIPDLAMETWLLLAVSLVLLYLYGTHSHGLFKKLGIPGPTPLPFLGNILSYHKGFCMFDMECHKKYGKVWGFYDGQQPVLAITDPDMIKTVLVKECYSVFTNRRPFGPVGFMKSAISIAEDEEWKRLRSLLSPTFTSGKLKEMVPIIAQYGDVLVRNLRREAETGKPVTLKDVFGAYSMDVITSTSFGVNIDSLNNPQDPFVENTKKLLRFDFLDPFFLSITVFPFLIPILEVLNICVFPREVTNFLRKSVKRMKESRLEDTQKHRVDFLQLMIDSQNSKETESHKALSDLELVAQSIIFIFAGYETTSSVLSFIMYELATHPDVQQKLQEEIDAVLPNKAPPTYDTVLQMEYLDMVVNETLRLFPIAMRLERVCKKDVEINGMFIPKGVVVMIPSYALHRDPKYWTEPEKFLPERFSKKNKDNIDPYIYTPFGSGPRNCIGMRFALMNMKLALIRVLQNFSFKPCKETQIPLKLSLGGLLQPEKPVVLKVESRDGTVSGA
Chain of Cytochrome P450 2C9 (P11712 whole entry): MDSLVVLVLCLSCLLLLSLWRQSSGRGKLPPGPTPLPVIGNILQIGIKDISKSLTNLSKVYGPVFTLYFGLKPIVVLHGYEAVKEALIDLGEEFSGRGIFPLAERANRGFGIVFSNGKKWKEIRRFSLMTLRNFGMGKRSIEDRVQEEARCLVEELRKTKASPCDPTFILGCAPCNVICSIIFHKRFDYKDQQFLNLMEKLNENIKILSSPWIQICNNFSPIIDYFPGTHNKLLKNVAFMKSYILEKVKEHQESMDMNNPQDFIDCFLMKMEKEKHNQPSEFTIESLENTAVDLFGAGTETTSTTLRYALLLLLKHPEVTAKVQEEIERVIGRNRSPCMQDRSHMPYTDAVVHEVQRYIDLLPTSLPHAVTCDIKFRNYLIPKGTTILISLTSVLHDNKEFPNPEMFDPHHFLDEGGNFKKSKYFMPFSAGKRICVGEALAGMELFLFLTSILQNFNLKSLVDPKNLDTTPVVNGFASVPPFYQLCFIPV

Nc1nc(-c2ccc3ccccc3c2)cc(-c2cc(-c3ccc4ccccc4c3)nc(N)n2)n1
AC50 (Cytochrome P450 1A2): 0.501 µM (inconclusive)

O=C(Nc1cccnc1)C1(F)C(F)(F)C(F)(F)C(F)(F)C(F)(F)C1(F)F
AC50 (INS1): 3.18 µM (active)

CC(C)[C@@H](CO)NC(=O)c1ccc2c3n(nc2c1)-c1ccccc1CO3
EC50 [1]: 6.1 µM (active)
EC50 [2]: 2.69 µM (active)

CCN(CC)c1nc(C(F)(F)F)nc2c1nnn2Cc1ccccc1
EC50 [3]: 7.21 µM (active)
EC50 (Streptokinase A): 12.4 µM (active)
EC50 (Streptococcus): > 150 µM (not active)

O=C(CCCN1C(=O)/C(=C/c2ccccc2)SC1=S)NCCCn1ccnc1
AC50 [4]: 76.3 µM (active)
AC50 (INS1): 21.2 µM (active)

O=C(NC(=S)Nc1ccc(N2CCCCC2)c(Cl)c1)c1ccc2c(c1)OCCO2
AC50 [4]: 2.54 µM (active)

O=C1c2ccccc2C(=O)c2c(NC3CCCCC3)ccc(Nc3ccc(S(=O)(=O)O)cc3)c21
AC50 (Cytochrome P450 1A2): 1.26 µM (inconclusive)

Cc1cc(OCCCCCN2CCCC2)ccc1Cl
EC50 [5]: 1.23 µM (active)
EC50 [6]: 19.2 µM (active)
IC50 [7]: 131 µM (active)

Cc1ccc(C(=O)NNC2=Nc3cccc4cccc2c34)cc1
EC50 [3]: 3.26 µM (active)
EC50 (Streptokinase A): > 150 µM (not active)
EC50 (Streptococcus): > 150 µM (not active)

O=C(Nc1ccccc1)/C(=C\c1ccc2c(c1)OCO2)NC(=O)c1ccco1
AC50 (Cytochrome P450 2C19): 22.4 µM (inconclusive)
AC50 (Cytochrome P450 1A2): 25.1 µM (inconclusive)
AC50 (Cytochrome P450 3A4): 20 µM (inconclusive)

O=C(CNCc1ccco1)Nc1cccc(S(=O)(=O)N2CCCCC2)c1
IC50 [7]: 169 µM (active)

c1cc(N2CCCC3(CCNCC3)C2)ccn1
AC50 (Cytochrome P450 2C19): 25.1 µM (inconclusive)
AC50 (Cytochrome P450 3A4): 12.6 µM (inconclusive)
AC50 (Cytochrome P450 2C9): 25.1 µM (inconclusive)

CCO[C@H]1OC(C(=O)N2CCN(Cc3ccc4c(c3)OCO4)CC2)=C[C@@H](c2csc3ccccc23)[C@@H]1CCCO
AC50 (INS1): 6.83 µM (active)

C[C@@H](C(=O)Nc1ccc2ccccc2c1)[C@@H]1C[C@@]1(C)[C@@H](N)c1ccccc1
AC50 (Cytochrome P450 2C9): 25.1 µM (inconclusive)

O=C(Nc1ccc(Cl)cc1)OCc1cc(-c2ccccc2Cl)on1
EC50 [1]: > 112 µM (not active)
EC50 [2]: > 112 µM (not active)
AC50 (Cytochrome P450 2C9): 1.12 µM (inconclusive)

Cc1ccc(OCCCC(=O)N2CCOCC2)cc1
AC50 (Cytochrome P450 1A2): 25.1 µM (inconclusive)
AC50 (Cytochrome P450 3A4): 25.1 µM (inconclusive)
AC50 (Cytochrome P450 2C9): 39.8 µM (inconclusive)

O=C(CSc1nnc(CNC(=O)c2c(F)cccc2F)o1)NCCc1ccccc1
EC50 [3]: > 150 µM (not active)
EC50 (Streptokinase A): > 150 µM (not active)
EC50 (Streptococcus): > 150 µM (not active)

Cc1cc(O)nc2ccc(S(=O)(=O)NC3CCCCC3)cc12
EC50 [1]: > 112 µM (not active)
EC50 [2]: 3.55 µM (active)

CSc1nc(C)c2c(n1)N(c1ccc(C(C)C)cc1)CC2
AC50 (Cytochrome P450 2C19): 17.8 µM (inconclusive)
AC50 (Cytochrome P450 2C9): 11.2 µM (inconclusive)

COc1ccc2nc(C3CCCCC3)nc(C3CCCCC3)c2c1
EC50 [3]: 2.8 µM (active)
EC50 (Streptokinase A): > 150 µM (not active)
EC50 (Streptococcus): 5.71 µM (active)

CNC[C@H](CC1CCCCC1)NC[C@H](CO)NCCc1cccc(C(F)(F)F)c1
CC50 [8]: 12.5 µM (active)
AC50 [4]: 7.61 µM (active)

CCOC(=O)c1sc2nccc(N(C)C)c2c1N=CNOCc1c(F)cccc1Cl
EC50 [3]: 11.6 µM (active)
EC50 (Streptokinase A): 27 µM (active)
EC50 [5]: 1.26 µM (active)
EC50 [6]: > 60 µM (not active)
EC50 (Streptococcus): > 150 µM (not active)

O=C(Cn1cnc2c(cnn2-c2ccccc2)c1=O)OCc1ccccc1
EC50 [1]: > 112 µM (not active)
EC50 [2]: > 112 µM (not active)

CCOC(=O)c1c(-c2ccc(OC)cc2)csc1NC(=O)CCN1C(=O)c2ccccc2C1=O
AC50 (Cytochrome P450 1A2): 12.6 µM (inconclusive)
AC50 (Cytochrome P450 3A4): 4.47 µM (inconclusive)

COc1ccc(-c2nc3ccccc3c(=O)n2N)cc1
AC50 (Cytochrome P450 2C19): 0.631 µM (inconclusive)
AC50 (Cytochrome P450 2C9): 2.82 µM (inconclusive)

CCCC/C=C/C(NC(=O)c1ccc(-c2ccccc2)cc1)c1ccccc1 (configuration not stated)
AC50 (Cytochrome P450 1A2): 15.8 µM (inconclusive)

CCOC(=O)c1c(C)oc2cc(Br)c(OC(=O)N3CCOCC3)cc12
EC50 [1]: > 112 µM (not active)
EC50 [2]: > 112 µM (not active)

Fc1ccc(N2CCN(Cc3c[nH]nc3-c3ccccc3)CC2)cc1
EC50 [3]: > 150 µM (not active)
EC50 (Streptokinase A): > 150 µM (not active)
EC50 (Streptococcus): > 150 µM (not active)

Cc1ccc(CS(=O)(=O)Cc2ccc(C(=O)NCC3CCCO3)o2)cc1 (configuration not stated)
AC50 (Cytochrome P450 2C19): 31.6 µM (inconclusive)
AC50 (Cytochrome P450 3A4): 15.8 µM (inconclusive)
AC50 (Cytochrome P450 2C9): 39.8 µM (inconclusive)

COC(=O)c1ccc(/C=C/c2nc(O)c3ccccc3n2)cc1
EC50 [1]: 17.7 µM (active)
EC50 [2]: 7.02 µM (active)

O=C(NC(=S)Nc1cccc(Cl)c1N1CCCC1)c1ccc(-c2cccc([N+](=O)[O-])c2)o1
AC50 (Cytochrome P450 1A2): 25.1 µM (inconclusive)
AC50 (Cytochrome P450 2C9): 5.01 µM (inconclusive)

Cc1ccccc1NCc1ccc([N+](=O)[O-])s1
AC50 [4]: 11 µM (active)

CCOc1cc(S(=O)(=O)Nc2ccc(CC)cc2)ccc1Cl
AC50 [4]: 6.17 µM (active)

COc1ccc(Cc2nnc(NC(=O)CSc3ccc(C)cc3)s2)cc1OC
AC50 (Cytochrome P450 2C19): 0.891 µM (inconclusive)
AC50 (Cytochrome P450 2C9): 2.51 µM (inconclusive)

O=C1NC(=O)C(=Cc2ccco2)C(=O)N1
IC50 [7]: 141 µM (active)

COc1ccc2cc(C(=O)N/N=C/c3sc4ccccc4c3O)ccc2c1
AC50 [4]: 1.61 µM (active)
AC50 (INS1): 3.02 µM (active)

C(=N\N1CCOCC1)/c1nc(-c2ccccc2)n2ccccc12
IC50 [7]: 22.3 µM (active)

CCOC(=O)C(/C=N/c1ccc(C(O)(C(=O)OCC)C(F)(F)F)cc1C)=C(/O)OCC (configuration not stated)
AC50 (INS1): 6.01 µM (active)

CCn1cc(C(=O)O)c(=O)c2cc(F)c(N/N=C/c3ccccc3[N+](=O)[O-])cc21
EC50 [3]: 4.31 µM (active)
EC50 (Streptokinase A): > 150 µM (not active)
EC50 (Streptococcus): 13.4 µM (active)
AC50 (INS1): 10.1 µM (active)

C/C(=N\Nc1ccc(Cl)c(Cl)c1)c1ccc(-n2ccnc2)cc1
CC50 [8]: 35.9 µM (active)
EC50 [3]: 3.05 µM (active)
EC50 (Streptokinase A): 17.2 µM (active)
EC50 (Streptococcus): 11.9 µM (active)

CCNC(=O)[C@H]1O[C@@H](n2cnc3c(N)ncnc32)[C@H](O)[C@@H]1O [NECA]
EC50 [2]: < 0.088 µM (active)

O=c1oc(-c2ccc(O)c(O)c2)cc2cccc(O)c12 [THUNBERGINOL A]
IC50 [7]: 19.7 µM (active)

Source: ChEMBL document CHEMBL1201862, “PubChem BioAssay data set” (2004)
